# “Also recorded” adds a separate entry of the source.
# Experiments:
# wtSOD1 [1] = molecular target: T1, wtSOD1 (Homo sapiens, UniProt P00441); assay: Cross-linking and western blots (SDS-PAGE) of SOD1; format: biochemical; conditions: for SOD1 dimer formation by cross-linking (western blot): 1:1 or 1:3 molar ratio SOD1 to cross-linker, 1 hour, room temperature
# T1 construct: purchased Sigma-Aldrich (St. Louis, Mo.)
# G93A SOD1 [2] = molecular target: T2, G93A SOD1 (Homo sapiens, UniProt P00441, G94A); assay: LC-FTMS of cross-linked SOD1 (stoichiometry of cross-linker binding); conditions: 1:1 molar ratio
# T2 construct: made in house; host or cells: S. cerevisiae EGy118ΔSOD1, vector YEp-351
# T2 sequence (P00441 2-154 G94A limits assumed): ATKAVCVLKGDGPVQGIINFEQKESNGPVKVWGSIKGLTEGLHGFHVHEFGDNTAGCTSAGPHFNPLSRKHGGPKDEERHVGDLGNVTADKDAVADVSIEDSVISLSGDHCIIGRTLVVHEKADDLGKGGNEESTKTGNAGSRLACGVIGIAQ
# Experimental: G93A was cross-linked using DMTE or BMOE as previously described at a 1:1 molar ratio (5 μM:5 μM). After one hour, 3% acetonitrile and 1% formic acid was added to the sample and spun at 14,000 RPM for 10 minutes to pellet any precipitated protein. The cross-linked sample was placed in an autosampler and 1 μL of cross-linked sample was aspirated into either a Proxeon 1D HPLC or Eksigent 2D HPLC with the following gradient: 3-50% B for 30 minutes, 50-95% B for 7 minutes, 95% B for 5 minutes, 95-3% B for 1 minute, and 3% B for 15 minutes. Buffer A is HPLC water with 0.1% formic acid and buffer B is 100% acetonitrile, 0.1% formic acid. After liquid chromatography, the sample was ionized using nanospray ionization and analyzed using a […] Bruker Daltonics FTMS. The FTMS was controlled using Apex control software and source parameters were controlled using the Apollo II software. Spectra (monomeric and dimeric G93A) were collected using a skimmer 1 voltage of 35-40V, whereas funnel skimmer dissociation was used to fragment the cross-linked G93A by increasing skimmer one voltage 140 volts. LC-FTMS data of cross-linked and non-cross-linked G93A were analyzed using Data Analysis software (Bruker Daltonics). These experiments were repeated in triplicate. […]
# G85R SOD1 [3] = molecular target: T3, G85R SOD1 (Homo sapiens, UniProt P00441, G86R); assay: Peptide sequencing using LC-FTMS (bottom-up analysis, site of cross-linking); format: binding; conditions: 1:1 molar ratio, Glu-C digest
# T3 construct: made in house; host or cells: S. cerevisiae EGy118ΔSOD1, vector YEp-351
# T3 sequence (P00441 2-154 G86R limits assumed): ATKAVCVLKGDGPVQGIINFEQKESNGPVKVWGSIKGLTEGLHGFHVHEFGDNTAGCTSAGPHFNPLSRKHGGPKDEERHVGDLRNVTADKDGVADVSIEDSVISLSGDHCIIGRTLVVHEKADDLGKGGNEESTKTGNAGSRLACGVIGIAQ
# G85R SOD1 [4] = molecular target: T3, G85R SOD1; assay: SOD1 activity assay (NBT gel based); format: biochemical; conditions: ~42 μM G85R; for SOD1 activity on addition of the substance: excess copper, zinc or cross-linker
# Experimental: (§1) The DTME cross-linked samples were divided in half, where one half was incubated with 10 mM TCEP and one was not, then analyzed on a 12.5% polyacrylamide gel. The gel was stained using a solution containing 50 mM potassium phosphate, pH 7.8, 1 tablet NBT (10 mg/tablet), and 0.1 mg/mL riboflavin for 45 minutes in the dark. After the 45 minute incubation 1 μL/mL TEMED was added and the gel was exposed to light for 2 minutes. Superoxide radicals create insoluble blue formazon from NBT. SOD1 acitivity is seen as a colorless band since SOD1 scavenges the superoxide, thus inhibiting the blue color formation. Repeated in triplicate.
# G93A SOD1 [5] = molecular target: T2, G93A SOD1; assay: SOD1 activity assay (NBT gel based); format: biochemical; conditions: ~42 μM SOD1, 80 μM copper and zinc and/or 42 μM cross-linker
# Experimental: as §1
# wtSOD1 [6] = molecular target: T1, wtSOD1; assay: SOD1 activity assay (NBT gel based); format: biochemical; conditions: ~42 μM SOD1, 80 μM copper and zinc and/or 42 μM cross-linker
# Experimental: as §1
# wtSOD1 [7] = molecular target: T1, wtSOD1; assay: MALDI-TOF MS of cross-linked SOD1; format: biochemical; conditions: 1:1 molar ratio
# human = conditions: LD50 values in human; cited from earlier work
# G93A SOD1 [8] = molecular target: T2, G93A SOD1; assay: Thermofluorescence stability assay (SYPRO Orange); format: binding; conditions: 10 μM G93A, 20 μM copper, 20 μM zinc
# G85R SOD1 [9] = molecular target: T3, G85R SOD1; assay: Thermofluorescence stability assay (SYPRO Orange); format: binding; conditions: 10 μM G85R, 20 μM copper, 20 μM zinc
# T1 sequence (P00441 2-154 limits assumed): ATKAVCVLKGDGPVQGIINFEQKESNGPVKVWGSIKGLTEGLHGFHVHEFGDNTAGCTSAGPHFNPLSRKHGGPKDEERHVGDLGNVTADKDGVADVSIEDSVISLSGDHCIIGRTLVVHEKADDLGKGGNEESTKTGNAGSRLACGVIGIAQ
molecule,measurement,setting,value
"O=C1C=CC(=O)N1CCOCCOCCN1C(=O)C=CC1=O [BM(PEG)2, 1,8-bis-Maleimidodiethyleneglycol]",SOD1 dimer formation by cross-linking (western blot),wtSOD1 [1],resulted in the stabilization of SOD1 dimer
"O=C1C=CC(=O)N1CCCCN1C(=O)C=CC1=O [BMB, 1,4bismaleimidobutane]",SOD1 dimer formation by cross-linking (western blot),wtSOD1 [1],resulted in the stabilization of SOD1 dimer
"O=C1C=CC(=O)N1CC(O)C(O)CN1C(=O)C=CC1=O (stereo not shown) [BMDB, 1,4-bismaleimidyl-2,3-dihydroxybutane]",SOD1 dimer formation by cross-linking (western blot),wtSOD1 [1],resulted in the stabilization of SOD1 dimer
"O=C1C=CC(=O)N1CCN1C(=O)C=CC1=O [BMOE, bis(maleimido)ethane]",stoichiometry of cross-linker binding,G93A SOD1 [2],consistent with the molecular weight of G93A plus one cross-linker
same,"cross-reactivity with other SOD1 cysteine residues Cys6, Cys57 and Cys146",G85R SOD1 [3],relatively low
same,site of cross-linking,G85R SOD1 [3],mainly through Cys111
same,SOD1 activity on addition of the substance,G85R SOD1 [4],increases
same,SOD1 activity on addition of the substance,G93A SOD1 [5],unaffected
same,SOD1 activity on addition of the substance,wtSOD1 [6],unchanged
"O=C1C=CC(=O)N1CCSSCCN1C(=O)C=CC1=O [DTME, Dithio-bismaleimidoethane]",state of cross-linked SOD1 dimer in presence of reducing agent (DTT),"wtSOD1 [1]; 1:1 molar ratio, SDS PAGE with reducing agent",only monomer was observed; also recorded: returning the dimer to its monomeric form; also recorded: became a monomer in the presence of reducing agent
same,SOD1 dimer formation by cross-linking (western blot),wtSOD1 [1],resulted in the stabilization of SOD1 dimer; also recorded: resulted in dimeric SOD1
same,dimer observed in MALDI-TOF spectra of cross-linked SOD1,wtSOD1 [7],The majority of the species observed is dimeric wtSOD1
same,stoichiometry of cross-linker binding,G93A SOD1 [2],one equivalent of cross-linker produced one equivalent of dimer; also recorded: consistent with the molecular weight of G93A plus one cross-linker
same,"SOD1 activity in the presence of copper, zinc and cross-linker",G85R SOD1 [4]; 80 μM copper and zinc and 42 μM cross-linker,even larger increase in activity; also recorded: largest increase in activity
same,SOD1 activity on addition of the substance,G85R SOD1 [4],increases
"C=CS(=O)(=O)CCCCCCS(=O)(=O)C=C [HBVS, 1,6-Hexanol-bis-vinylsulfone]",SOD1 dimer formation by cross-linking (western blot),wtSOD1 [1],did not result in formation of dimeric SOD1; also recorded: did not appear to cross-link SOD1
"O=C(CI)NCCNC(=O)CI [N,N′-ethylenebis-(iodoacetamide)]",LD50,human,9 mg/kg
"O=C1C=CC(=O)N1CCN(CCN1C(=O)C=CC1=O)CCN1C(=O)C=CC1=O [TMEA, Tris[2-maleimidoethyl]-amione]",relative cross-linking efficiency (western blot),wtSOD1 [1]; 1:1 or 1:3 cross-linker to protein,most efficient cross-linker
same,SOD1 dimer formation by cross-linking (western blot),wtSOD1 [1],resulted in the stabilization of SOD1 dimer
NNc1ccccc1 [phenylhydrazine],LD50,human,80 mg/kg
copper and zinc,effect of excess copper and zinc on stability,G93A SOD1 [8],no affect; also recorded: little effect
same,stabilization by excess copper and zinc alone,G85R SOD1 [9],~20 °C
same,SOD1 activity on addition of the substance,G85R SOD1 [4],increases
same,SOD1 activity on addition of the substance,G93A SOD1 [5],unaffected
same,SOD1 activity on addition of the substance,wtSOD1 [6]; zinc,unaffected; also recorded: unchanged
